47 molecules from article PMC12684298, “The Parkinson's Disease Drug Tolcapone and Analogues are Potent Glycomimetic Lectin Inhibitors of Pseudomonas aeruginosa LecA” (Angewandte Chemie (International Ed. in English), 2025) can be followed below.

This test concerns the target T1, LecA (Pseudomonas aeruginosa, UniProt Q05097).
T1 construct: made in house; host or cells: E. coli BL21 (DE3), plasmid pET25pa11
Nature of the test: biochemical. It counts as binding. The procedure:
Therefore, we focused our attention on commercially available nitro‐catechols. Prominent derivatives are inhibitors of the enzyme catechol‐O‐methyltransferase (COMT) and approved drugs for the treatment of Parkinson's disease. Four commercial COMT inhibitors were thus evaluated in a previously reported competitive binding assay based on fluorescence polarisation (FP, Table 1, Figure 1).^[ [32] ^]
The competitive binding assay was performed in analogy to Joachim et al.^[2] 10 µL of a solution containing LecA (40 µM) and sulfo-Cy5-Gal (20 nM, synthesis described in Kuhaudomlarp, Siebs et al.^[5]) in TBS/Ca buffer (20 mM Tris, 147 mM NaCl, 2.6 mM KCl at pH 7.4 supplemented with 1 mM CaCl2) were distributed in into wells of a black 384-well microtiter plate (Greiner Bio-One, Germany, cat no 781900). Then, 10 µL of serial dilutions of compounds (3 mM to 1.5 µM, dilution factor 0.5) in TBS/Ca with 40% DMSO were added in technical triplicates. Final concentrations after mixing were the following: 1.5 mM – 0.73 µM compound, 20 µM LecA, 10 nM sulfo-Cy5-Gal and 20% DMSO. The plate was sealed (EASYseal, Greiner Bio-One, cat no 676001), briefly centrifuged and incubated at room temperature in the dark under shaking conditions. Fluorescence intensity was measured after 1 h and 4 h using a PheraStar FS plate reader (BMG Labtech GmbH, Germany) with spectral filters for excitation at 590 nm and emission at 675 nm and polarization was calculated after blank values of 20 µM LecA in TBS/Ca buffer with 20% DMSO were subtracted from the test compounds. The data were analysed using the four-parameter variable slope model of the MARS Data Analysis software. The top and bottom plateau were assigned based on the control compound methyl α-d-galactoside and the data was reanalysed with these fixed values. If not mentioned otherwise, the experiment was repeated at least three times for each compound and the average and standard deviation are given. In case Triton X-100 was used it was added to the TBS/Ca buffer before the assay.

The mark [1] stands for this setting: IC50, extended dose-response analysis, 20% DMSO, no 2-mercaptoethanol, three experiments.
Setting [2] is: LecA inhibition, competitive binding assay (FP), tested up to 1.5 mM, n ≥ 2.
Setting [3] is: IC50 in presence of 0.01% Triton X-100, FP assay, 0.01% Triton X-100, one replicate.
[4] abbreviates: IC50 in presence of 0.057% Triton X-100, FP assay, 0.057% Triton X-100, one replicate.

T1 sequence (Q05097 whole entry): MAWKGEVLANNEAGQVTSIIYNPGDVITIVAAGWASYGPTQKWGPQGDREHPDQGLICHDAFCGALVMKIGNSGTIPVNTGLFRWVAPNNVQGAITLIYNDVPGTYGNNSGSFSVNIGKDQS

Turning to `O=[N+]([O-])c1cc(-c2cn3ncsc3n2)cc(O)c1O` [RO0199733], under setting [1], the IC50 (commonly the concentration at which inhibition is half-maximal) is above 1500 µM.

Under setting [1], `Cc1c(C(=O)c2cc(O)c(O)c([N+](=O)[O-])c2)[nH]c2ccccc12` [RO0403335] returned an IC50 of 434 µM.

With `O=C(c1ccncc1)c1cc(O)c(O)c([N+](=O)[O-])c1` [RO0403499], under setting [1], 597 µM corresponded to half-maximal inhibition (IC50).

In turn, `O=C(c1cc(O)c(O)c([N+](=O)[O-])c1)c1ccnc2ccccc12` [RO0405919] had a half-maximal inhibitory concentration (IC50) under setting [1] of 174 µM.

Molecule `O=C(c1ccc(F)cc1)c1cc(O)c(O)c([N+](=O)[O-])c1` [RO0407028] gave an IC50 under setting [1] of 370 µM.

As to `O=C(c1cc(O)c(O)c([N+](=O)[O-])c1)c1cncc2ccccc12` [RO0408176], under setting [1], 449 µM corresponded to half-maximal inhibition (IC50).

In the case of `O=C(c1cccc(F)c1)c1cc(O)c(O)c([N+](=O)[O-])c1` [RO0412713], under setting [1], the IC50 was found to be 675 µM.

Take `Cc1ccccc1C(=O)c1cc(O)c(O)c([N+](=O)[O-])c1` [RO0412734]: it took 116 µM to reach half-maximal inhibition under setting [1] (IC50).

The molecule `O=C(c1cc(O)c(O)c([N+](=O)[O-])c1)c1ccccc1C(F)(F)F` [RO0413162] returned a 50% inhibitory concentration (IC50) under setting [1] of 128 µM.

Take `N#Cc1ccccc1C(=O)c1cc(O)c(O)c([N+](=O)[O-])c1` [RO0413268]: inhibition under setting [1] was half-maximal at 214 µM (IC50).

For `O=C(c1cc(O)c(O)c([N+](=O)[O-])c1)c1ccccc1Cl` [RO0413301], under setting [1], the midpoint of inhibition, the IC50, lay at 108 µM.

As for `Cc1ccc(C(=O)c2ccc(O)c(O)c2[N+](=O)[O-])cc1` [RO0614977], under setting [1], 154 µM corresponded to half-maximal inhibition (IC50).

On to `CC(C)(C)c1ccc(C(=O)c2cc(O)c(O)c([N+](=O)[O-])c2)cc1` [RO0615662], for which the concentration for half-maximal inhibition (IC50) under setting [1] was 144 µM.

Regarding `CC(C)c1ccc(C(=O)c2cc(O)c(O)c([N+](=O)[O-])c2)cc1` [RO0615928], half-maximal inhibition under setting [1] (IC50) was put at 129 µM.

Under setting [1], `Cc1ccc(C(=O)c2cc(O)c(O)c(S(=O)(=O)C(F)(F)F)c2)cc1` [RO0616411] displayed a 50% inhibitory concentration (IC50) of 338 µM.

In the case of `Cc1ccc(C(=O)C(=O)c2cc(O)c(O)c([N+](=O)[O-])c2)cc1` [RO0619291], the IC50 under setting [1] was 128 µM.

For the molecule `COC(=O)/C=C/c1cccc(C(=O)c2cc(O)c(O)c([N+](=O)[O-])c2)c1` [RO0619973], under setting [1], the half-inhibitory concentration (IC50) came out at 258 µM.

With `CCCNC(=O)c1ccc(C(=O)c2cc(O)c(O)c([N+](=O)[O-])c2)cc1` [RO0620570], half-maximal inhibition under setting [1] (IC50) was put at 347 µM.

`CCN(CC)C(=O)c1ccc(C(=O)c2cc(O)c(O)c([N+](=O)[O-])c2)cc1` [RO0620573]: the half-inhibitory concentration (IC50) under setting [1] is 438 µM.

Take `COC(=O)c1cccc(C(=O)c2cc(O)c(O)c([N+](=O)[O-])c2)c1` [RO0620808]: the 50% inhibitory concentration (IC50) under setting [1] came to 279 µM.

Consider `CCOC(=O)c1cccc(C(=O)c2cc(O)c(O)c([N+](=O)[O-])c2)c1` [RO0620809], for which the IC50 under setting [1] stood at 244 µM.

For `C=CCOC(=O)c1cccc(C(=O)c2cc(O)c(O)c([N+](=O)[O-])c2)c1` [RO0620810], under setting [1], the IC50 came out at 139 µM.

Consider `O=C(NCC1CC1)c1cccc(C(=O)c2cc(O)c(O)c([N+](=O)[O-])c2)c1` [RO0621004], for which half-maximal inhibition under setting [1] (IC50) required 363 µM.

For `CCCNC(=O)c1cccc(C(=O)c2cc(O)c(O)c([N+](=O)[O-])c2)c1` [RO0621005], the half-inhibitory concentration (IC50) under setting [1] stood at 422 µM.

Regarding `CCCCNC(=O)c1cccc(C(=O)c2cc(O)c(O)c([N+](=O)[O-])c2)c1` [RO0621006], half-maximal inhibition under setting [1] (IC50) was put at 283 µM.

Under setting [1], `CC(C)OC(=O)c1cccc(C(=O)c2cc(O)c(O)c([N+](=O)[O-])c2)c1` [RO0621109] gave an IC50 of 156 µM.

`CCN(CC)C(=O)c1cccc(C(=O)c2cc(O)c(O)c([N+](=O)[O-])c2)c1` [RO0621115] gave an IC50 under setting [1] of 229 µM.

Molecule `CCCN(CCC)C(=O)c1cccc(C(=O)c2cc(O)c(O)c([N+](=O)[O-])c2)c1` [RO0621116] registered a concentration for half-maximal inhibition (IC50) under setting [1] of 173 µM.

For `O=C(C(=O)c1cc(O)c(O)c([N+](=O)[O-])c1)c1ccccc1` [RO0621161], under setting [1], the IC50 is 153 µM.

Take `CC(O)CCOC(=O)c1cccc(C(=O)c2cc(O)c(O)c([N+](=O)[O-])c2)c1` (stereo not drawn) [RO0621239]: 192 µM corresponded to half-maximal inhibition under setting [1] (IC50).

Molecule `COC(=O)c1ccc(C(=O)c2cc(O)c(O)c([N+](=O)[O-])c2)cc1` [RO0621265] had a concentration for half-maximal inhibition (IC50) under setting [1] of 330 µM.

Turning to `O=C(OCCC(O)C(F)(F)F)c1cccc(C(=O)c2cc(O)c(O)c([N+](=O)[O-])c2)c1` (stereo not drawn) [RO0622624], half-maximal inhibition under setting [1] (IC50) required 135 µM.

In turn, `O=C(c1cccc(CO)c1)c1cc(O)c(O)c([N+](=O)[O-])c1` [RO0623430] showed a concentration for half-maximal inhibition (IC50) under setting [1] of 446 µM.

Turning to `COCCOCc1ccc(C(=O)c2cc(O)c(O)c([N+](=O)[O-])c2)cc1` [RO0624122], 289 µM corresponded to half-maximal inhibition under setting [1] (IC50).

The molecule `CC(C)(C)COC(=O)c1cccc(C(=O)c2cc(O)c(O)c([N+](=O)[O-])c2)c1` [RO0626777] yielded a 50% inhibitory concentration (IC50) under setting [1] of 206 µM.

Under setting [1], `CCCCOC(=O)c1cccc(C(=O)c2cc(O)c(O)c([N+](=O)[O-])c2)c1` [RO0626778] had a half-maximal inhibitory concentration (IC50) of 117 µM.

With `O=C(NC1CCCCC1)c1cccc(C(=O)c2cc(O)c(O)c([N+](=O)[O-])c2)c1` [RO0626783], under setting [1], it took 430 µM to reach half-maximal inhibition (IC50).

For `O=C(NCc1ccccc1)c1cccc(C(=O)c2cc(O)c(O)c([N+](=O)[O-])c2)c1` [RO0626786], the 50% inhibitory concentration (IC50) under setting [1] was 356 µM.

`CCCN(CCC)C(=O)c1c(Br)cc(O)c(O)c1[N+](=O)[O-]` [RO0627603] returned a concentration for half-maximal inhibition (IC50) under setting [1] of 285 µM.

In the case of `CC(=O)C(=Cc1cc(O)c(O)c([N+](=O)[O-])c1)C(C)=O` [compound 1, Nitecapone, reference compound], the IC50 entry was “no inhibition” under setting [2] and “inactive” (LecA inhibition, competitive binding assay (FP), tested up to 1.5 mM, n ≥ 2, listed as Nitecapone).

As for `CCN(CC)C(=O)/C(C#N)=C/c1cc(O)c(O)c([N+](=O)[O-])c1` [compound 2, Entacapone, reference compound], the 50% inhibitory concentration (IC50) result is, setting by setting: under setting [2], “no inhibition”; (LecA inhibition, competitive binding assay (FP), tested up to 1.5 mM, n ≥ 2, listed as Entacapone) “inactive”.

In the case of `Cc1c(Cl)c(C)[n+]([O-])c(Cl)c1-c1noc(-c2cc(O)c(O)c([N+](=O)[O-])c2)n1` [compound 3, Opicapone, reference compound], the IC50 (IC50, LecA inhibition, competitive binding assay (FP), tested up to 1.5 mM, n ≥ 2) is 842 ± 134 µM.

Consider `Cc1c(C(=O)c2cc(O)c(O)c([N+](=O)[O-])c2)[nH]c2ccc(Br)cc12` [compound 30], for which the half-inhibitory concentration (IC50) came out at 43 µM under setting [1] and 59 µM under setting [3].

As to `O=C(OCc1ccccc1)c1ccc(C(=O)c2cc(O)c(O)c([N+](=O)[O-])c2)cc1` [compound 31], the half-maximal inhibitory concentration (IC50) under setting [1] was determined as 47 µM, the IC50 under setting [3] turned out to be 17 µM and the IC50 under setting [4] was determined as 16 µM.

Turning to `C=CCOC(=O)c1ccc(C(=O)c2cc(O)c(O)c([N+](=O)[O-])c2)cc1` [compound 32], the IC50 by setting is: under setting [1], 56 µM; under setting [3], 49 µM; under setting [4], 50 µM.

Regarding `CCCCCOC(=O)c1cccc(C(=O)c2cc(O)c(O)c([N+](=O)[O-])c2)c1` [compound 34], inhibition under setting [1] was half-maximal at 63 µM (IC50), the IC50 under setting [3] amounted to 88 µM and the IC50 under setting [4] stood at 61 µM.

For the molecule `CCCCCOC(=O)c1ccc(C(=O)c2cc(O)c(O)c([N+](=O)[O-])c2)cc1` [compound 35], the IC50 by setting is: under setting [1], 72 µM; under setting [4], 66 µM.
